Results taken from patent publication US12728168B2, “Anti-CEA antibody-exatecan analog conjugate and pharmaceutical use thereof” (JIANGSU HENGRUI MEDICINE CO., LTD., priority 2019, dated 2026).

How the values were obtained:
[1] = test system: SK-BR-3 tumor cells (human breast cancer cells); assay: Inhibition of in vitro proliferation of SK-BR-3 cells (CTG); format: cell-based; details: 6 days of culture
Procedure: (§1) This experiment was intended to test the inhibitory activity of the pharmaceutical compounds of the present disclosure against the in vitro proliferation of U87MG cells (Cell Bank, Chinese Academy of Sciences, Cat #TCHu138) and SK-BR-3 tumor cells (human breast cancer cells, ATCC, Cat #HTB-30). The cells were treated in vitro with a compound at different concentrations. After 6 days of culture, the proliferation of cells was tested using CTG (CellTiter-Glo® Luminescent Cell Viability Assay, Promega, Cat #G7573) reagents, and the in vitro activity of the compound was evaluated according to IC50 value.
(§2) The test for the inhibition of the in vitro proliferation of U87MG cells was taken as an example to illustrate the method of the present invention for testing the inhibitory activity of the compounds of the present invention against the in vitro proliferation of tumor cells. […]
(§3) Different test samples at 100 nM or 5 μM (100 μL) were added to the first column of a 96-well plate, and 100 μL of PBS was added to each well of the second column through the eleventh column. […] Plate reading: the 96-well cell culture plate was taken out and tested in a microplate reader (BMG labtech, PHERAstar FS) for chemiluminescence. […]
(§4) Data were processed and analyzed using Microsoft Excel and Graphpad Prism 5.

[2] = test system: U87MG cells; assay: Inhibition of in vitro proliferation of U87MG cells (CTG); format: cell-based; details: Homo sapiens, U-87 MG, 6 days of culture, read-out: IC50 (nM) U87
Procedure: as §1, §2, §3, §4

[3] = molecular target: T1, human CEACAM1 expressed on CHO cell surface (CEACAM1-CHO) (Homo sapiens, UniProt P13688); assay: FACS binding assay, CEACAM1-CHO cells
T1 construct: expressed in transfected cells; host or cells: CHO cells
T1 sequence (P13688 35-526): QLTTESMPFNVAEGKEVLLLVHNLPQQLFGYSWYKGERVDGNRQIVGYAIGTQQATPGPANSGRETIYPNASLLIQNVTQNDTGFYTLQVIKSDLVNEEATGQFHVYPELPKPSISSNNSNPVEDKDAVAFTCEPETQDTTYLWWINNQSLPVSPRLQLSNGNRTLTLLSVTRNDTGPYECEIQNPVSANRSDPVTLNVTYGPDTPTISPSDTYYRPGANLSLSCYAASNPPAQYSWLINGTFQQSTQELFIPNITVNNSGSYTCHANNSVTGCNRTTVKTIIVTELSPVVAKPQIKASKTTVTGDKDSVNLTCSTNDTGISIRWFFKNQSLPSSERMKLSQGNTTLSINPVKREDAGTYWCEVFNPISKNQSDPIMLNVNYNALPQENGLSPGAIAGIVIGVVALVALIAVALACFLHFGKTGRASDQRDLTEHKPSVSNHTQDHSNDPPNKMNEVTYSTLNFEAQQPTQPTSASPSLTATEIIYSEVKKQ
Procedure: In order to detect the binding of the antibody to the CEA protein on the cell surface, the binding activity of the antibody was determined by FACS using cells expressing CEA on the cell surface. Cells were harvested and centrifuged at 400 g at 4° C. for 5 min. Pre-cooled PBS containing FBS at final concentration 10% was added, and the mixture was centrifuged at 400 g at 4° C. for 5 min; the procedures were repeated twice. The cells were seeded into a 96-well plate at 10^5 cells/well, and 100 μL of gradient diluted antibody solution was added to each well. The plate was incubated at 4° C. for 60 min and centrifuged, and the supernatant was removed. 250 μL of pre-cooled PBS containing FBS at final concentration 10% was added to each well to resuspend the cells, and the suspension was centrifuged at 400 g at 4° C. for 5 min, followed by the removal of the supernatant; the procedures were repeated twice. 50 μL of 1:200 diluted secondary antibody Alexa Fluor@488 goat anti-human IgG (H+L) (Lifetechologies, Cat #A11013) was added. The plate was incubated in the dark at 4° C. for 45 min and centrifuged, and the supernatant was removed. 250 μL of pre-cooled PBS containing FBS at final concentration 10% was added to each cell to resuspend the cells, and the suspension was centrifuged at 400 g at 4° C. for 5 min; the procedures were repeated twice. 100 μL of pre-cooled PBS was added to each well to resuspend the cells. The plate was analyzed by a flow cytometer (BD, FACSverse) for fluorescence signal values. Higher values indicate higher binding activity of the antibody to the protein on the cell surface. Binding curves were plotted using PRISM analysis software based on the assay results, and the EC50 values for the binding activity of the antibody to the cell surface proteins human CEA (MKN45 human gastric cancer cells, Nanjing Kebai Biotechnology Co., Ltd., Cat #CBP60488), cynoCEA-CHO and CEACAM1-CHO were obtained by fitting.

EC50 (nM) CEACAM1-CHO ([3]; Table 1, murine antibodies)	Molecule	IC50 [1] [nM]	IC50 [2] [nM]	also measured
–	CC[C@@]1(O)C(=O)OCc2c1cc1n(c2=O)Cc2c-1nc1cc(F)c(C)c3c1c2[C@@H](NC(=O)[C@H](O)C1CC1)CC3 [1-B, (R)-2-cyclopropyl-N-((1S,9S)-9-ethyl-5-fluoro-9-hydroxy-4-methyl-10,13-dioxo-2,3,9,10,13,15-hexahydro-1H,12H-benzo[de]pyrano[3′,4′:6,7]indolizino[1,2-b]quinolin-1-yl)-2-hydroxyacetamide]	0.33	0.86	–
–	Sanofi: the antibody in SAR-408701 (Sanofi), heavy chain SEQ ID NO: 88, light chain SEQ ID NO: 89; positive control [reference compound]	–	–	EC50 (nM) CEACAM1-CHO ([3]; Table 17, humanized antibodies and controls): No binding
–	CC[C@@]1(O)C(=O)OCc2c1cc1n(c2=O)Cc2c-1nc1cc(F)c(C)c3c1c2[C@@H](NC(=O)[C@@H](O)C1CC1)CC3 [1-A, (S)-2-cyclopropyl-N-((1S,9S)-9-ethyl-5-fluoro-9-hydroxy-4-methyl-10,13-dioxo-2,3,9,10,13,15-hexahydro-1H,12H-benzo[de]pyrano[3′,4′:6,7]indolizino[1,2-b]quinolin-1-yl)-2-hydroxyacetamide]	8.11	2.31	–
No binding	mAb103: murine anti-CEA monoclonal antibody, VH SEQ ID NO: 13, VL SEQ ID NO: 14 (antibody, V domains shown) VH: QIQLVQSGPELKKPGETVKISCKASGYTFTTYGVIWVKQAPGKGLKWMGWINTYSGVPTYADDFKGRFAFSLETSASTAFLQINNLKNEDTATYFCARKKTLTTVTPWFAYWGQGTLVTVSA VL: DLVVTQSSSASFSLGASAKLTCTLSSQHSTYTIEWYQQQPLKPPKYVMELKKDGSHSTGDGIPDRFSGSSSGADRYLTISNIQPEDEAIYICGVGNTIKEQFVYVFGGGTKVTVL	–	–	–
No binding	mAb67: murine anti-CEA monoclonal antibody, VH SEQ ID NO: 11, VL SEQ ID NO: 12 (antibody, V domains shown) VH: EVQLQQSGPELVKPGASVKIYCKASGYTFTDYHMNWVKQSHGKSLEWIGDINPDIGGTSYNQNFKGKATLTVDKSSSTAYMELRSLTSEDSAVYYCSRWDFDSFANWGQGTLVTVSA VL: DIVMTQSPASLAMSLGKRATISCRASESVSIIGTNLIHWYQQKPGQPPKLLIYHASNLETGVPARFSGSGSGADFTLTIDPVEGDDVALYYCLQSRKIPYTFGGGTKMEIK	–	–	–
No binding	mAb63: murine anti-CEA monoclonal antibody, VH SEQ ID NO: 9, VL SEQ ID NO: 10 (antibody, V domains shown) VH: EVQLQQSGPELVKPGASVKMSCKASGYTFTDFYMNWVRQSHGKSLEWIGDIFPKNGNTDYNRKFKDKATLTVDKSSNTVYMEFRSLTLEDSAIYFCARSGYGNYVFDYWGQGTIFTVSS VL: DVQMTQTPSALSASLGDRVTISCRTSQDINIYLNWYQQKPDGTVKLLIYYRSGLLSGVPSRFSGSGSGTDYSLTISNLEPEDIATYFCQQGNTLPPTFGGGTKLEIK	–	–	–
